From US7235664B2, “Anthranilamides with heteroarylsulfonyl side chain, process of preparation, and use” (Sanofi-Aventis Deutschland GmbH, priority 2001, dated 2007) come the findings set out here.

`CC[C@H](NC(=O)c1cc(F)ccc1NS(=O)(=O)c1cccc2cccnc12)c1ccccc1` [Example 52, (S)-5-Fluoro-2-(quinoline-8-sulfonylamino)-N-(1-phenylpropyl)-benzamide]: the melting point came out at 163 °C.

By melting point is commonly meant the temperature of the solid-liquid transition.
